Results published in patent publication US20250313563A1, “GLYCOGEN SYNTHASE KINASE 3 INHIBITORS AND USES THEREOF” (The Broad Institute, Inc., priority 2022, published 2025).
Where two headings read alike, the source gives them in different places.

Key:
[1] = biological target: GSK3α (GST-full length GSK3α) (Homo sapiens (Human), UniProt P49840); assay: GSK3α TR-FRET kinase assay; type: biochemical
Procedure, shortened: (§1)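 Compound preincubated 30 min, then 1 nM GST-full-length GSK3α or GSK3b run 100 min at ambient temperature with 200 nM biotinylated, S645-prephosphorylated glycogen synthase 631-650 peptide in Tris pH 7.5, MgCl2, DTT, BSA, 1% DMSO. ATP 4 μM (α) or 2 μM (β), or 1 mM. EDTA-quenched; Tb-anti-pSer641/streptavidin-d2 TR-FRET 665/615 ratio gave IC50.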

[2] = biological target: GSK3b (GST-full length GSK3b) (Homo sapiens (Human), UniProt P49841); assay: GSK3b TR-FRET kinase assay; type: biochemical
GSK3b (GST-full length GSK3b), sequence (P49841 whole entry): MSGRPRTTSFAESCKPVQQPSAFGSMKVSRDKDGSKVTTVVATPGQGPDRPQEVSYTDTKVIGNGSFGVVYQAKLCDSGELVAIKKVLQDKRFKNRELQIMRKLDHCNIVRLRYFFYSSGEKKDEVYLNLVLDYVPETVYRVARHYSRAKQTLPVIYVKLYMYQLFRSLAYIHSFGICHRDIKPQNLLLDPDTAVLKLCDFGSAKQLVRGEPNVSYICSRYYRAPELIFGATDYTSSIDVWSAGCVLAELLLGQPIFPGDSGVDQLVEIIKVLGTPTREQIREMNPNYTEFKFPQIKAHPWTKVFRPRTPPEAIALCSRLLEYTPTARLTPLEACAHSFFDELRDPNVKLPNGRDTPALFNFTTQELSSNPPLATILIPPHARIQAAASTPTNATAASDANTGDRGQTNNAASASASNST
Procedure, shortened: as §1

[3] = 1 nM GSK3α, 4 μM ATP, 30 minute preincubation, read-out: GSK3-A TR-FRET BIOCHEMICAL (TR-FRET), IC50
[4] = read-out: GSK3-A (TR-FRET 1 mM ATP), GMean, IC50, 1 mM ATP, geometric mean
[5] = 1 nM GSK3b, 2 μM ATP, 30 minute preincubation, read-out: GSK3-B TR-FRET BIOCHEMICAL (TR-FRET), IC50
[6] = read-out: GSK3-B (TR-FRET 1 mM ATP), GMean, IC50, 1 mM ATP, geometric mean
[7] = 1 nM GSK3α, 4 μM ATP, 30 minute preincubation, geometric mean, read-out: GSK3-A TR-FRET BIOCHEMICAL (TR-FRET), GMean, IC50
[8] = 1 nM GSK3b, 2 μM ATP, 30 minute preincubation, geometric mean, read-out: GSK3-B TR-FRET BIOCHEMICAL (TR-FRET), GMean, IC50
[9] = 1 nM GSK3α, 4 μM ATP, 30 minute preincubation, Table 16, read-out: GSK3-A TR-FRET BIOCHEMICAL (TR-FRET)
[10] = 1 nM GSK3b, 2 μM ATP, 30 minute preincubation, Table 16, read-out: GSK3-B TR-FRET BIOCHEMICAL (TR-FRET)
[11] = 1 nM GSK3α, 4 μM ATP, 30 minute preincubation, Table 16, read-out: GSK3-A TR-FRET BIOCHEMICAL (TR-FRET), IC50
[12] = 1 nM GSK3b, 2 μM ATP, 30 minute preincubation, Table 16, read-out: GSK3-B TR-FRET BIOCHEMICAL (TR-FRET), IC50

GSK3α (GST-full length GSK3α), sequence (P49840 whole entry): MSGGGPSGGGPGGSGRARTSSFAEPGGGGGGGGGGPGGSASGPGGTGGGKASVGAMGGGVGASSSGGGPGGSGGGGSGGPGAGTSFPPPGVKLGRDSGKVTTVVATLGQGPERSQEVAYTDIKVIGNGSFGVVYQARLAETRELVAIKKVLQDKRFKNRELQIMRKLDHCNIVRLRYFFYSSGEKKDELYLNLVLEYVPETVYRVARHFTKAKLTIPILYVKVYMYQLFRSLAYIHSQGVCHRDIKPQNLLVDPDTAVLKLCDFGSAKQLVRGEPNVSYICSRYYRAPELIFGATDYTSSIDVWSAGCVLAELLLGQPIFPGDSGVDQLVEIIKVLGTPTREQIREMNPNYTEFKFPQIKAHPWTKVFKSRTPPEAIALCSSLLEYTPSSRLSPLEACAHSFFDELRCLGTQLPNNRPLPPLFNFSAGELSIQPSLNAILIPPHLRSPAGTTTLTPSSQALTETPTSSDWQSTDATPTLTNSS

## CC1CCC(CC(=O)N2CC3(C2)CC2(CO3)C3=C(CC(C)(C)CC3=O)Nc3n[nH]cc32)C1 (centres unmarked) [Compound 947269]
[1]; [3]
  IC50: ≤ 100 nM
[1]; [4]
  IC50: 100 to 1000 nM
[2]; [5]
  IC50: ≤ 100 nM
[2]; [6]
  IC50: 100 to 1000 nM

## CC[C@]1(c2cccc(S(=O)(=O)C3CC3)c2)C2=C(CC(C)(C)NC2=O)Nc2[nH]nc(C(F)(F)F)c21 [Compound 948771]
[1]; [7]
  IC50: ≤ 100 nM
[1]; [4]
  IC50: ≤ 100 nM
[2]; [8]
  IC50: ≤ 100 nM
[2]; [6]
  IC50: 100 to 1000 nM

## CC1(C)CC(=O)C2=C(C1)Nc1n[nH]cc1[C@]21C[C@@H](OCc2ccccc2)C1 [Compound 909211]
[1]; [9]
  IC50: ≤ 100 nM
[2]; [10]
  IC50: 100 to 1000 nM

## CCC1(c2cccc(-c3cnn(C)c3)c2)C2=C(CC(C)CC2=O)Nc2n[nH]cc21 (centres unmarked) [Compound 823721]
[1]; [7]
  IC50: ≤ 100 nM
[1]; [4]
  IC50: 100 to 1000 nM
[2]; [8]
  IC50: 100 to 1000 nM
[2]; [6]
  IC50: > 5000 nM

## CC[C@@]1(c2ccccc2)C2=C(Nc3n[nH]cc31)[C@@H]1CC[C@@H](C1)C2=O [Compound 791268]
[1]; [9]
  IC50: > 5000 nM
[2]; [10]
  IC50: > 5000 nM

## CC1(C)CC(=O)C2=C(C1)Nc1n[nH]cc1[C@@]21CCO[C@@H](C(F)(F)F)C1 [Compound 884024]
[1]; [11]
  IC50: 1000 to 5000 nM
[2]; [12]
  IC50: > 5000 nM

## CCC1(c2cccc(-c3ccnc(OC(F)F)c3)c2)C2=C(CC(C)(C)CC2=O)Nc2n[nH]cc21 (centres unmarked) [Compound 932629]
[1]; [11]
  IC50: ≤ 100 nM
[2]; [12]
  IC50: 100 to 1000 nM

## Cc1cccc(S(=O)(=O)N2CC[C@@]3(C2)C2=C(CC(C)(C)CC2=O)Nc2n[nH]cc23)c1 [Compound 951864]
[1]; [9]
  IC50: ≤ 100 nM
[1]; GSK3-A (TR-FRET 1 mM ATP), GMean, IC50, 1 mM ATP, geometric mean
  IC50: 100 to 1000 nM
[2]; [10]
  IC50: ≤ 100 nM
[2]; GSK3-B (TR-FRET 1 mM ATP), GMean, IC50, 1 mM ATP, geometric mean
  IC50: 1000 to 5000 nM

## CCC1(c2cccc(-c3cnn4c3CCCC4)c2)C2=C(CC(C)(C)CC2=O)Nc2n[nH]cc21 (centres unmarked) [Compound 945544]
[1]; [9]
  IC50: 100 to 1000 nM
[2]; [10]
  IC50: > 5000 nM

## CC[C@@]1(c2ccccc2)C2=C(C[C@@](C)(COC)CC2=O)Nc2n[nH]cc21 [Compound 816875]
[1]; [7]
  IC50: 100 to 1000 nM
[2]; [8]
  IC50: 1000 to 5000 nM

## CC[C@@]1(c2ccccc2)C2=C(C[C@@H](C(F)(F)F)CC2=O)Nc2n[nH]cc21 [Compound 806607]
[1]; [7]
  IC50: > 5000 nM
[2]; [8]
  IC50: > 5000 nM

## CC[C@]1(c2cccc(-c3cnn(C4CC4(F)F)c3)c2)C2=C(CC(C)(C)NC2=O)Nc2n[nH]cc21 (some centres unmarked) [Compound 950060]
[1]; [11]
  IC50: ≤ 100 nM
[2]; [12]
  IC50: 100 to 1000 nM

## CC1(C)CC(=O)C2=C(C1)Nc1n[nH]cc1C21CCSC1 (centres unmarked) [Compound 883973]
[1]; [9]
  IC50: ≤ 100 nM
[2]; [10]
  IC50: 100 to 1000 nM

## CCC1(c2cccc(-c3cncn3C)c2)C2=C(CC(C)(C)NC2=O)Nc2n[nH]c(C(F)(F)F)c21 (centres unmarked) [Compound 949010]
[1]; [7]
  IC50: ≤ 100 nM
[1]; [4]
  IC50: ≤ 100 nM
[2]; [8]
  IC50: ≤ 100 nM
[2]; [6]
  IC50: ≤ 100 nM

## C[C@@H]1CC(=O)C2=C(C1)Nc1n[nH]cc1[C@]2(C)c1ccccc1 [Compound 789331]
[1]; [7]
  IC50: > 5000 nM
[2]; [8]
  IC50: > 5000 nM

## CC[C@@]1(c2cccc(-c3cc(C)nn3C)c2)C2=C(CC(C)(C)C2=O)Nc2n[nH]cc21 [Compound 950827]
[1]; [11]
  IC50: > 5000 nM
[2]; [12]
  IC50: > 5000 nM

## CCC1(c2cccc(N(C)C(=O)CN3CCCC3)c2)C2=C(CC(C)(C)CC2=O)Nc2n[nH]cc21 (centres unmarked) [Compound 913125]
[1]; [11]
  IC50: ≤ 100 nM
[2]; [12]
  IC50: 100 to 1000 nM

## CC[C@@]1(c2cccc(N(C)c3ncccn3)c2)C2=C(CC(C)(C)NC2=O)Nc2n[nH]cc21 [Compound 943964]
[1]; [3]
  IC50: ≤ 100 nM
[1]; [4]
  IC50: 100 to 1000 nM
[2]; [5]
  IC50: ≤ 100 nM
[2]; [6]
  IC50: 1000 to 5000 nM

## CC[C@]1(c2cccc(-c3c(C#N)c(C)nn3C)c2)C2=C(CC(C)(C)NC2=O)Nc2n[nH]cc21 [Compound 951844]
[1]; [11]
  IC50: ≤ 100 nM
[2]; [12]
  IC50: 100 to 1000 nM

## CCC1(c2cccc(-c3ccncc3C)c2)C2=C(CC3(CCOCC3)NC2=O)Nc2n[nH]cc21 (centres unmarked) [Compound 948367]
[1]; [7]
  IC50: 100 to 1000 nM
[2]; [8]
  IC50: > 5000 nM

## CCC1(c2cccc(C(F)(F)F)c2)C2=C(Nc3n[nH]cc31)C(C)CNC2=O (centres unmarked) [Compound 945384]
[1]; [3]
  IC50: 1000 to 5000 nM
[2]; [5]
  IC50: > 5000 nM

## CCC1(c2ccccc2)C2=C(CSC(C)(C)C2=O)Nc2n[nH]cc21 (centres unmarked) [Compound 862028]
[1]; [3]
  IC50: 100 to 1000 nM
[2]; [5]
  IC50: 1000 to 5000 nM

## CCC1(c2cccc(-c3ccnn3CCC(C)C)c2)C2=C(CC(C)(C)CC2=O)Nc2n[nH]cc21 (centres unmarked) [Compound 946095]
[1]; [9]
  IC50: ≤ 100 nM
[2]; [10]
  IC50: ≤ 100 nM

## CCC1(c2cccc(C)c2)C2=C(CC(C)(C)CC2=O)Nc2n[nH]c(C(F)(F)F)c21 (centres unmarked) [Compound 883873]
[1]; [11]
  IC50: ≤ 100 nM
[1]; [4]
  IC50: ≤ 100 nM
[2]; [12]
  IC50: ≤ 100 nM
[2]; [6]
  IC50: 100 to 1000 nM

## CCC1(c2cccc(N3CCOc4ccccc43)c2)C2=C(CC(C)(C)CC2=O)Nc2n[nH]cc21 (centres unmarked) [Compound 918280]
[1]; [11]
  IC50: ≤ 100 nM
[2]; [12]
  IC50: ≤ 100 nM

## CC1(C)CC(=O)C2=C(C1)Nc1n[nH]cc1C21COC2(CN(C(=O)C3CCCC3)C2)C1 (centres unmarked) [Compound 917232]
[1]; [3]
  IC50: ≤ 100 nM
[2]; [5]
  IC50: ≤ 100 nM

## CC[C@]1(c2cccc(-c3ccnc(C)c3)c2)C2=C(CC(C)(C)NC2=O)Nc2n[nH]c(Cl)c21 [Compound 949421]
[1]; [11]
  IC50: 100 to 1000 nM
[2]; [12]
  IC50: > 5000 nM

## CCC1(c2cccc(C(F)(F)F)c2)C2=C(CCN(Cc3ccccc3)C2=O)Nc2n[nH]cc21 (centres unmarked) [Compound 897749]
[1]; [3]
  IC50: 100 to 1000 nM
[2]; [5]
  IC50: > 5000 nM

## CCC1(c2cccc(S(=O)(=O)C3CC3)c2)C2=C(CC(C)(C)NC2=O)Nc2n[nH]c(C(F)(F)F)c21 (centres unmarked) [Compound 947859]
[1]; [7]
  IC50: ≤ 100 nM
[1]; [4]
  IC50: ≤ 100 nM
[2]; [8]
  IC50: ≤ 100 nM
[2]; [6]
  IC50: ≤ 100 nM

## CCC1(c2cccc(CN(C)C(C)=O)c2)C2=C(CC(C)(C)CC2=O)Nc2n[nH]cc21 (centres unmarked) [Compound 865194]
[1]; [7]
  IC50: 100 to 1000 nM
[2]; [8]
  IC50: 1000 to 5000 nM

## CCC1(c2cccc(-c3ccnc(C)c3)c2)C2=C(CC(C)(C)NC2=O)Nc2n[nH]c(F)c21 (centres unmarked) [Compound 948299]
[1]; [7]
  IC50: ≤ 100 nM
[2]; [8]
  IC50: 1000 to 5000 nM

## CC[C@@]1(c2cccc(C(F)(F)F)c2)C2=C(CCN(CC(F)(F)F)C2=O)Nc2n[nH]cc21 [Compound 912205]
[1]; [3]
  IC50: > 5000 nM
[2]; [5]
  IC50: > 5000 nM

## CCC1(c2cccc(N3CCCCC3)c2)C2=C(CC(C)(C)CC2=O)Nc2n[nH]c(C)c21 (centres unmarked) [Compound 884115]
[1]; [11]
  IC50: 100 to 1000 nM
[2]; [12]
  IC50: 100 to 1000 nM

## CCC1(c2cccc(C(F)(F)F)c2)C2=C(CC(C)N(c3cnc(OC)nc3)C2=O)Nc2n[nH]cc21 (centres unmarked) [Compound 949352]
[1]; [11]
  IC50: ≤ 100 nM
[1]; [4]
  IC50: 100 to 1000 nM
[2]; [12]
  IC50: ≤ 100 nM
[2]; [6]
  IC50: 1000 to 5000 nM

## CC[C@]1(c2ccccc2)C2=C(CC3(CCCC3)CC2=O)Nc2n[nH]cc21 [Compound 789563]
[1]; [7]
  IC50: > 5000 nM
[2]; [8]
  IC50: > 5000 nM

## CC[C@@]1(c2cccc(-c3ccnc4c(Cl)cccc34)c2)C2=C(CC(C)(C)NC2=O)Nc2n[nH]cc21 [Compound 948650]
[1]; [7]
  IC50: > 5000 nM
[2]; [8]
  IC50: > 5000 nM

## CC[C@@]1(c2cccc(-c3ccnc(C)c3)c2)C2=C(CC(C)(C)NC2=O)Nc2n[nH]c(C(F)(F)F)c21 [Compound 948774]
[1]; [7]
  IC50: ≤ 100 nM
[2]; [8]
  IC50: ≤ 100 nM

## CC[C@]1(c2cccc(N(C)c3ncccn3)c2)C2=C(CC(C)(C)NC2=O)Nc2[nH]ncc21 [Compound 943965]
[1]; [3]
  IC50: 100 to 1000 nM
[2]; [5]
  IC50: > 5000 nM

## CCC1(c2cccc(-c3ccncc3F)c2)C2=C(CC(C)(C)CC2=O)Nc2n[nH]cc21 (centres unmarked) [Compound 913349]
[1]; [11]
  IC50: ≤ 100 nM
[2]; [12]
  IC50: ≤ 100 nM

## CCCS(=O)(=O)c1cccc(C2(CC)C3=C(CC(C)(C)CC3=O)Nc3n[nH]cc32)c1 (centres unmarked) [Compound 929447]
[1]; [4]
  IC50: ≤ 100 nM
[2]; [6]
  IC50: 100 to 1000 nM
